Results published in patent US4472305A, “Hexapeptide amides” (Sterling Drug Inc., priority 1983, dated 1984).
Non-standard residues stand in square brackets, D forms with d. Residues, ends and D or L forms follow the SMILES beside them. dNMeW = CN[C@H](Cc1c[nH]c2ccccc12)C(=O)O; Gly(NCH2CH2Ph) = O=C(O)CNCCc1ccccc1; NMeF = CN[C@@H](Cc1ccccc1)C(=O)O; 4Pal = N[C@@H](Cc1ccncc1)C(=O)O; Dap(Me2) = CN(C)C[C@H](N)C(=O)O; d4Pal = N[C@H](Cc1ccncc1)C(=O)O; dPhg = N[C@@H](C(=O)O)c1ccccc1; NMeL = CN[C@@H](CC(C)C)C(=O)O; Nle = CCCC[C@H](N)C(=O)O; Nphe = O=C(O)CNCc1ccccc1; Dap = NC[C@H](N)C(=O)O; Sar = CNCC(=O)O

Tests used:
SP receptor [1] = biological target: T1, SP receptor (Rattus norvegicus, UniProt P14600); experiment: 3H-SP binding test, rat submaxillary gland tissue; conditions: for inhibition at 30 µM: read-out: 3H-SP Binding % Inhibition; for effect on 3H-SP binding (specificity): rat submaxillary gland or brain tissue preparation, tissue not specified
T1 construct: from tissue; host or cells: rat submaxillary gland (crude tissue suspension)
Experimental: (§1) Crude rat submaxillary gland or brain tissue is suspended in buffer containing protease inhibitors (and calcium ions and magnesium ions in the case of brain tissue) and incubated under nitrogen atmosphere with ^3 H-SP and test compound. The bound SP is then separated from free SP by filtration and quantitated by liquid scintillation spectroscopy. This test meets the criteria of reversibility, saturability, sensitivity to known SP agonists and antagonists, and specificity for an SP receptor binding assay.
(§2) With regard to reversibility, addition of unlabelled SP causes a gradual decrease in bound ^3 H-SP, showing that SP is not irreversibly bound to the receptors in the tissue. With regard to saturability, the amount of bound ^3 H-SP in the preparation increases in direct proportion to the concentration of ^3 H-SP added until a saturation point is reached. […] With regard to sensitivity, known SP agonists and antagonists inhibit ^3 H-SP binding.
(§3) The results are expressed either as percent inhibition at a concentration of 30 micromoles per liter (μM) or as an IC50 calculated as the concentration in micromoles per liter.
(§4) The ^3 H-SP binding test results were obtained using rat submaxillary gland tissue for Examples 1-34 and rat brain tissue for Examples 35-42.

SP receptor [2] = biological target: T1, SP receptor; experiment: 3H-SP binding test, rat brain tissue; conditions: rat brain tissue (Examples 35-42); for inhibition at 30 µM: 30 μM test compound
Experimental: as §1, §2, §3, §4

[3] = tested on: longitudinal muscle of guinea pig terminal ileum; experiment: Guinea pig ileum test (SP agonist and antagonist effect); type: cell-based; conditions: for Guinea Pig Ileum % Agonism (potency relative to SP): contraction of ileum longitudinal muscle strips, relative molar potency vs SP
Experimental: Strips of longitudinal muscle derived from terminal ileum of adult male guinea pigs (Charles River, 400-600 g.) are mounted in 5-ml. organ baths containing oxygenated Krebs solution containing 1 μM each of atropine and pyrilamine maintained at 30-33 C. and connected to isometric transducers. Following tissue equilibration and repeated washing (45-60 min.), SP or an appropriate reference agonist is added cumulatively to the bath and contractions of the tissue are recorded. The bath is washed thoroughly and 30-45 min. is allowed to elapse before construction of a second reference agonist curve to assure reproducibility of the responses. Test compounds are similarly evaluated for agonist activity up to a maximum concentration of 10-100 μM. […] When appropriate, relative molar potency ratios are calculated (EC50 reference/ED50 test drug). […] The effects of several concentrations of test antagonist, pooled across separate experiments, provide dose-ratio (EC50 shift) data for a standard Schild plot analysis, with computation of the pA2.

[4] = 30 μM test compound, rat submaxillary gland tissue (Examples 1-34)

T1 sequence (P14600 whole entry): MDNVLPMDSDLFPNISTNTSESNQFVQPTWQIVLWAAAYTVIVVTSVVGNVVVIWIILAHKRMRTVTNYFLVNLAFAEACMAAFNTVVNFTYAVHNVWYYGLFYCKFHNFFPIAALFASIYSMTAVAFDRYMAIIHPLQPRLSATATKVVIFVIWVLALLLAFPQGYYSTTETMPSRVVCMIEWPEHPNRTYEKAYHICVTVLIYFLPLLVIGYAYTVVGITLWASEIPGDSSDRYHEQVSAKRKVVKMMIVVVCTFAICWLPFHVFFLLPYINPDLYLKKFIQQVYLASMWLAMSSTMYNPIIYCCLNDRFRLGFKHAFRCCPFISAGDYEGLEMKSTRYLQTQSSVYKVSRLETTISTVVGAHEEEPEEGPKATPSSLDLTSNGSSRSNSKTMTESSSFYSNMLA

Molecule | inhibition at 30 µM (SP receptor [1]; [4]) | Guinea Pig Ileum % Agonism (potency relative to SP) [3] | further results
CSCC[C@H](NC(=O)[C@H](CN(C)C)NC(=O)CNC(=O)[C@H](Cc1ccccc1)NC(=O)[C@H](Cc1ccccc1)NC(=O)[C@@H]1CCCN1)C(N)=O [Example 16, HPro-Phe-Phe-Gly-Gal-MetNH2] (H-PFFG[Dap(Me2)]M-NH2) | 13% | – | –
COc1cc(CNC(=O)CCCC/C=C/C(C)C)ccc1O [capsaicin, reference compound] | – | – | effect on 3H-SP binding (specificity) (SP receptor [1]): do not affect
CSCC[C@H](NC(=O)[C@H](CC(C)C)NC(=O)[C@@H](Cc1ccccc1)NC(=O)CN(CCc1ccccc1)C(=O)[C@@H](Cc1ccccc1)NC(=O)[C@@H]1CCCN1)C(N)=O [Example 32, HPro-DPhe-Pgl-DPhe-Leu-MetNH2] (H-P[dF][Gly(NCH2CH2Ph)][dF]LM-NH2) | 40% | – | –
CSCC[C@H](NC(=O)[C@H](CC(C)C)NC(=O)[C@@H](Cc1c[nH]c2ccccc12)NC(=O)CNC(=O)[C@@H](Cc1c[nH]c2ccccc12)NC(=O)[C@@H]1CCCN1)C(N)=O [Example 39, HPro-DTrp-Gly-DTrp-Leu-MetNH2] (H-P[dW]G[dW]LM-NH2) | – | – | inhibition at 30 µM (SP receptor [2]): 46%
CSCC[C@H](NC(=O)[C@H](CC(C)C)NC(=O)CNC(=O)[C@H](Cc1ccccc1)NC(=O)[C@H](Cc1ccccc1)NC(=O)[C@H]1CCCN1)C(N)=O [Example 10, HDPro-Phe-Phe-Gly-Leu-MetNH2] (H-[dP]FFGLM-NH2) | 65% | 10% | –
CSCC[C@H](NC(=O)[C@H](CC(C)C)NC(=O)[C@@H](Cc1c[nH]c2ccccc12)NC(=O)[C@H](Cc1ccccc1)N(C)C(=O)[C@@H](Cc1c[nH]c2ccccc12)NC(=O)[C@@H]1CCCN1)C(N)=O [Example 38, HPro-DTrp-MePhe-DTrp-Leu-MetNH2] (H-P[dW][NMeF][dW]LM-NH2) | – | – | inhibition at 30 µM (SP receptor [2]): 68%
CSCC[C@H](NC(=O)[C@H](CC(C)C)NC(=O)[C@H](Cc1ccncc1)NC(=O)[C@H](Cc1ccccc1)NC(=O)[C@H](Cc1ccccc1)NC(=O)[C@@H]1CCCN1)C(N)=O [Example 19] (H-PFF[4Pal]LM-NH2) | 42% | – | –
CSCC[C@H](NC(=O)[C@H](CC(C)C)NC(=O)[C@@H](CCCCN)NC(=O)[C@H](Cc1ccccc1)NC(=O)[C@@H](Cc1c[nH]c2ccccc12)NC(=O)[C@@H]1CCCN1)C(N)=O [Example 33, HPro-DTrp-Phe-DLys-Leu-MetNH2] (H-P[dW]F[dK]LM-NH2) | 15% | – | –
CSCC[C@H](NC(=O)[C@H](CC(C)C)N(C)C(=O)CNC(=O)[C@H](Cc1ccccc1)NC(=O)[C@H](Cc1ccccc1)NC(=O)[C@@H]1CCCN1)C(N)=O [Example 5, HPro-Phe-Phe-Gly-MeLeu-MetNH2] (H-PFFG[NMeL]M-NH2) | 75% | – | –
CSCC[C@H](NC(=O)[C@H](CC(C)C)NC(=O)[C@@H](Cc1ccncc1)NC(=O)[C@H](Cc1ccccc1)NC(=O)[C@H](Cc1ccccc1)NC(=O)[C@@H]1CCCN1)C(N)=O [Example 20] (H-PFF[d4Pal]LM-NH2) | 20% | – | –
CSCC[C@H](NC(=O)[C@@H](CC(C)C)NC(=O)CNC(=O)[C@H](Cc1ccccc1)NC(=O)[C@H](Cc1ccccc1)NC(=O)[C@@H]1CCCN1)C(N)=O [Example 4, HPro-Phe-Phe-Gly-DLeu-MetNH2] (H-PFFG[dL]M-NH2) | 17% | 0.3% | –
CCCC[C@H](NC(=O)[C@H](CC(C)C)NC(=O)CNC(=O)[C@H](Cc1ccccc1)NC(=O)[C@H](Cc1ccccc1)NC(=O)[C@@H]1CCCN1)C(N)=O [Example 8, HPro-Phe-Phe-Gly-Leu-NleNH2] (H-PFFGL[Nle]-NH2) | 49% | 3% | –
CSCC[C@@H](NC(=O)[C@H](CC(C)C)NC(=O)CNC(=O)[C@H](Cc1ccccc1)NC(=O)[C@H](Cc1ccccc1)NC(=O)[C@@H]1CCCN1)C(N)=O [Example 6, HPro-Phe-Phe-Gly-Leu-DMetNH2] (H-PFFGL[dM]-NH2) | 8% | 4% | –
CSCC[C@H](NC(=O)[C@H](CC(C)C)NC(=O)[C@@H](Cc1c[nH]c2ccccc12)N(C)C(=O)[C@H](Cc1ccccc1)NC(=O)[C@@H](Cc1c[nH]c2ccccc12)NC(=O)[C@@H]1CCCN1)C(N)=O [Example 41, HPro-DTrp-Phe-MeDTrp-Leu-MetNH2] (H-P[dW]F[dNMeW]LM-NH2) | – | – | inhibition at 30 µM (SP receptor [2]): 79%; IC50 (SP receptor [2]): 13.3 µM
CSCC[C@H](NC(=O)[C@H](CC(C)C)NC(=O)[C@H](CCC(=O)O)NC(=O)[C@H](Cc1ccccc1)NC(=O)[C@H](Cc1ccccc1)NC(=O)[C@@H]1CCCN1)C(N)=O [Example 15, HPro-Phe-Phe-Glu-Leu-MetNH2] (H-PFFELM-NH2) | 10% | 0.004% | –
HPro-Phe-D,LBpa-Gly-Leu-MetNH2 [Example 18] | – | 33% | 3H-SP Binding % Inhibition (SP receptor [1]; [4]): 90%
NCC(CC(=O)O)c1ccc(Cl)cc1 (centres unmarked) [baclofen, reference compound] | – | – | effect on 3H-SP binding (specificity) (SP receptor [1]): do not affect
CSCC[C@H](NC(=O)[C@H](CC(C)C)NC(=O)CNC(=O)[C@H](Cc1ccccc1)NC(=O)[C@@H](Cc1ccccc1)NC(=O)[C@@H]1CCCN1)C(N)=O [Example 9, HPro-DPhe-Phe-Gly-Leu-MetNH2] (H-P[dF]FGLM-NH2) | 22% | 0.0009% | Guinea Pig Ileum pA2 [3]: 5.6
CSCC[C@H](NC(=O)[C@H](CC(C)C)NC(=O)[C@@H](C)NC(=O)[C@H](Cc1ccccc1)NC(=O)[C@H](Cc1ccccc1)NC(=O)[C@@H]1CCCN1)C(N)=O [Example 1, HPro-Phe-Phe-DAla-Leu-MetNH2] (H-PFF[dA]LM-NH2) | 17% | 0.7% | –
CSCC[C@H](NC(=O)[C@H](CC(C)C)NC(=O)CNC(=O)[C@@H](Cc1ccccc1)NC(=O)[C@H](Cc1ccccc1)NC(=O)[C@@H]1CCCN1)C(N)=O [Example 7, HPro-Phe-DPhe-Gly-Leu-MetNH2] (H-PF[dF]GLM-NH2) | 48% | 0.7% | –
CSCC[C@H](NC(=O)[C@H](CC(C)C)NC(=O)[C@H](CN)NC(=O)[C@H](Cc1ccccc1)NC(=O)[C@H](Cc1ccccc1)NC(=O)[C@@H]1CCCN1)C(N)=O [Example 13, HPro-Phe-Phe-LDap-Leu-MetNH2] (H-PFF[Dap]LM-NH2) | 15% | – | –
CSCC[C@H](NC(=O)[C@H](CC(C)C)NC(=O)[C@@H](Cc1ccccc1)NC(=O)CN(Cc1ccccc1)C(=O)[C@@H](Cc1ccccc1)NC(=O)[C@@H]1CCCN1)C(N)=O [Example 30, HPro-DPhe-Bgl-DPhe-Leu-MetNH2] (H-P[dF][Nphe][dF]LM-NH2) | 40% | – | –
CSCC[C@H](NC(=O)[C@H](CC(C)C)N1CC[C@H](NC(=O)[C@H](Cc2ccccc2)NC(=O)[C@H](Cc2ccccc2)NC(=O)[C@@H]2CCCN2)C1=O)C(N)=O [Example 14, HPro-Phe-Phe-CabLeu-MetNH2] | 10% | – | –
CSCC[C@H](NC(=O)[C@H](CC(C)C)NC(=O)CNC(=O)[C@H](Cc1ccccc1)N(C)C(=O)[C@H](Cc1ccccc1)NC(=O)[C@@H]1CCCN1)C(N)=O [Example 2, HPro-Phe-MePhe-Gly-Leu-MetNH2] (H-PF[NMeF]GLM-NH2) | 25% | – | –
CSCC[C@H](NC(=O)[C@H](CC(C)C)NC(=O)[C@@H](Cc1ccccc1)NC(=O)[C@H](Cc1ccccc1)NC(=O)[C@H](NC(=O)[C@@H]1CCCN1)c1ccccc1)C(N)=O [Example 28, HPro-DPhg-Phe-DPhe-Leu-MetNH2] (H-P[dPhg]F[dF]LM-NH2) | – | – | inhibition at 30 µM (SP receptor [1]): 33%
CSCC[C@H](NC(=O)[C@H](CC(C)C)NC(=O)CN(C)C(=O)[C@H](Cc1ccccc1)NC(=O)[C@H](Cc1ccccc1)NC(=O)[C@@H]1CCCN1)C(N)=O [Example 3, HPro-Phe-Phe-Sar-Leu-MetNH2] (H-PFF[Sar]LM-NH2) | 93% | 27% | –
CSCC[C@H](NC(=O)[C@H](CC(C)C)NC(=O)CN(C)C(=O)[C@H](Cc1ccccc1)N(C)C(=O)[C@H](Cc1ccccc1)NC(=O)[C@@H]1CCCN1)C(N)=O [Example 11, HPro-Phe-MePhe-Sar-Leu-MetNH2] (H-PF[NMeF][Sar]LM-NH2) | 11% | – | –
CSCC[C@H](NC(=O)[C@H](CC(C)C)NC(=O)[C@@H](CCCNC(=N)N)NC(=O)[C@H](Cc1ccccc1)NC(=O)[C@@H](Cc1c[nH]c2ccccc12)NC(=O)[C@@H]1CCCN1)C(N)=O [Example 34, HPro-DTrp-Phe-DArg-Leu-MetNH2] (H-P[dW]F[dR]LM-NH2) | 20% | 5.2% | –
